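Each compound was tested at five concentrations against cells in 96-well plates for 48 hours. Abbreviation: GI50, concentration required for 50% inhibition of growth.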 Activity calls are given as the source filed them. Cut-off read from the data, not from the text of the source: active = GI50 up to about 1.1 µM and inactive = higher.
Tests used:
Assay in all cases: inhibition of tumour cell growth, NCI panel, 48 h
[1] = system: CCRF-CEM
[2] = system: HL-60
[3] = system: NCI-H522
[4] = system: HOP-62
[5] = system: HT-29
[6] = system: RPMI-8226
[7] = system: SN12C
[8] = system: OVCAR-3
[9] = system: A549
[10] = system: UACC-257
[11] = system: SR
[12] = system: OVCAR-8
[13] = system: OVCAR-5
[14] = system: COLO 205
[15] = system: SW-620
[16] = system: RXF 393
[17] = system: SF-295
[18] = system: DU-145
[19] = system: K562
[20] = system: T47D

Structure (SMILES)	GI50 [1]	GI50 [2]	GI50 [3]	GI50 [4]	GI50 [5]	GI50 [6]	GI50 [7]	GI50 [8]	GI50 [9]	GI50 [10]	GI50 [11]	GI50 [12]	GI50 [13]	GI50 [14]	GI50 [15]	GI50 [16]	GI50 [17]	GI50 [18]	GI50 [19]	GI50 [20]
Cc1cccc(/C(Br)=C2/OC(=O)c3ccccc32)c1	> 100 µM (inactive)	> 10 µM (inactive)	> 100 µM (inactive)	> 100 µM (inactive)	> 100 µM (inactive)	> 100 µM (inactive)	> 100 µM (inactive)	> 100 µM (inactive)	> 100 µM (inactive)	> 100 µM (inactive)	> 100 µM (inactive)	> 100 µM (inactive)	> 100 µM (inactive)	> 100 µM (inactive)	> 100 µM (inactive)	> 100 µM (inactive)	> 100 µM (inactive)	> 100 µM (inactive)		
CSc1nc2c(c(=O)[nH]1)N=C(c1ccc([N+](=O)[O-])cc1)CC(c1ccccc1)N2 (stereo not drawn)	29.2 µM (inactive)	14.7 µM (inactive)	23.9 µM (inactive)	> 100 µM (inactive)	20.3 µM (inactive)	22 µM (inactive)	54.8 µM (inactive)	55.6 µM (inactive)	32.4 µM (inactive)	44.9 µM (inactive)	62.4 µM (inactive)	34.5 µM (inactive)	> 100 µM (inactive)	55.1 µM (inactive)	22.9 µM (inactive)	23.2 µM (inactive)	51.1 µM (inactive)	86.1 µM (inactive)	34.4 µM (inactive)	
COc1ccc(N2/C(=N/c3ccccc3)SC(=N/S(=O)(=O)c3ccccc3)/C2=N\S(=O)(=O)c2ccccc2)cc1	20 µM (inactive)	12.1 µM (inactive)		26.7 µM (inactive)	19.6 µM (inactive)	20.7 µM (inactive)	15.8 µM (inactive)		18.5 µM (inactive)	26.8 µM (inactive)	16.8 µM (inactive)	18.2 µM (inactive)	22.6 µM (inactive)	16.4 µM (inactive)	34.8 µM (inactive)	12.8 µM (inactive)			16.9 µM (inactive)	0.298 µM (active)
O=C(COc1ccc(OCC(=O)N2C(=O)CC(=O)N(c3ccc(Cl)cc3)C2=S)cc1)N1C(=O)CC(=O)N(c2ccc(Cl)cc2)C1=S			17 µM (inactive)		24.6 µM (inactive)	49.5 µM (inactive)	42 µM (inactive)		22.6 µM (inactive)	36.1 µM (inactive)			12.9 µM (inactive)	18.2 µM (inactive)	53.1 µM (inactive)	31.6 µM (inactive)	34 µM (inactive)	31.6 µM (inactive)	19.4 µM (inactive)	
COc1ccc(O)c2c(=O)ccccc12	> 100 µM (inactive)	> 100 µM (inactive)	28.8 µM (inactive)	> 100 µM (inactive)	> 100 µM (inactive)	> 100 µM (inactive)	> 100 µM (inactive)	> 100 µM (inactive)	> 100 µM (inactive)	> 100 µM (inactive)	> 100 µM (inactive)	> 100 µM (inactive)	> 100 µM (inactive)	> 100 µM (inactive)	> 100 µM (inactive)	4.79 µM (inactive)	> 100 µM (inactive)		> 100 µM (inactive)	
c1ccc(Cc2nc(Cc3n[nH]c(Cc4ccccc4)n3)n[nH]2)cc1	> 100 µM (inactive)		> 100 µM (inactive)	> 100 µM (inactive)	> 100 µM (inactive)	> 100 µM (inactive)	> 100 µM (inactive)	> 100 µM (inactive)	> 100 µM (inactive)	> 100 µM (inactive)	> 100 µM (inactive)	> 100 µM (inactive)	> 100 µM (inactive)	> 100 µM (inactive)	> 100 µM (inactive)	> 100 µM (inactive)	> 100 µM (inactive)	> 100 µM (inactive)	> 100 µM (inactive)	
CC1CCCc2c1c1ccc3c(O)cccc3c1oc2=O (stereo not drawn)	67.1 µM (inactive)	> 100 µM (inactive)	13.7 µM (inactive)	18.7 µM (inactive)	> 100 µM (inactive)	55.1 µM (inactive)	43 µM (inactive)	64.1 µM (inactive)	56.9 µM (inactive)	> 100 µM (inactive)	> 100 µM (inactive)	31.3 µM (inactive)	71.8 µM (inactive)	> 100 µM (inactive)	> 100 µM (inactive)	18.8 µM (inactive)	14.8 µM (inactive)		> 100 µM (inactive)	
COC(=O)C1(O)c2ccccc2N=C2C1CCN2C (stereo not drawn)	> 100 µM (inactive)	> 100 µM (inactive)	> 100 µM (inactive)	> 100 µM (inactive)	> 100 µM (inactive)	> 100 µM (inactive)	> 100 µM (inactive)		> 100 µM (inactive)	> 100 µM (inactive)	> 100 µM (inactive)	> 100 µM (inactive)	> 100 µM (inactive)	> 100 µM (inactive)	> 100 µM (inactive)	> 100 µM (inactive)	> 100 µM (inactive)		> 100 µM (inactive)	
COc1cc2c(cc1OC)-c1c(cc(OC)c(OC)c1OC)C2=O	81.7 µM (inactive)	98.6 µM (inactive)	49 µM (inactive)	25.9 µM (inactive)	> 100 µM (inactive)	> 100 µM (inactive)	> 100 µM (inactive)	> 100 µM (inactive)	> 100 µM (inactive)	> 100 µM (inactive)	> 100 µM (inactive)	> 100 µM (inactive)	> 100 µM (inactive)	> 100 µM (inactive)	> 100 µM (inactive)	> 100 µM (inactive)	> 100 µM (inactive)		> 100 µM (inactive)	
COC(=O)C1CSC(c2csc(CCN)n2)=N1 (stereo not drawn)	> 100 µM (inactive)	> 100 µM (inactive)	> 100 µM (inactive)		> 100 µM (inactive)	> 100 µM (inactive)	> 100 µM (inactive)	> 100 µM (inactive)	> 100 µM (inactive)	> 100 µM (inactive)	> 100 µM (inactive)	> 100 µM (inactive)	> 100 µM (inactive)	> 100 µM (inactive)	> 100 µM (inactive)	> 100 µM (inactive)	> 100 µM (inactive)		> 100 µM (inactive)	
CC1(C)COC(C2(C)C(=O)C=C(c3ccccc3)c3ccccc32)=N1 (stereo not drawn)	35.5 µM (inactive)	27 µM (inactive)	35.5 µM (inactive)	64.9 µM (inactive)	30.5 µM (inactive)	34.9 µM (inactive)	30.5 µM (inactive)	30.4 µM (inactive)	33.3 µM (inactive)	31.4 µM (inactive)	37.2 µM (inactive)	46.8 µM (inactive)		42.6 µM (inactive)	81.8 µM (inactive)	55.3 µM (inactive)	37.9 µM (inactive)		33.3 µM (inactive)	
CCCCC/C(=N\c1[nH]cnc1C(N)=O)OCC	> 100 µM (inactive)	> 100 µM (inactive)	75 µM (inactive)	> 100 µM (inactive)	> 100 µM (inactive)	> 100 µM (inactive)	> 100 µM (inactive)	> 100 µM (inactive)	> 100 µM (inactive)	> 100 µM (inactive)	> 100 µM (inactive)	> 100 µM (inactive)	> 100 µM (inactive)	> 100 µM (inactive)	> 100 µM (inactive)	> 100 µM (inactive)	> 100 µM (inactive)	> 100 µM (inactive)	> 100 µM (inactive)	
CC(C)[Si](OCC1CC(C[C@H]2CC(C[C@H]3C[C@@H](CO[Si](C(C)C)(C(C)C)C(C)C)OC(C)(C)O3)OC(C)(C)O2)OC(C)(C)O1)(C(C)C)C(C)C (stereo partly drawn)	> 100 µM (inactive)	> 100 µM (inactive)	> 100 µM (inactive)	> 100 µM (inactive)	> 100 µM (inactive)	> 100 µM (inactive)		> 100 µM (inactive)	> 100 µM (inactive)	> 100 µM (inactive)	> 100 µM (inactive)	> 100 µM (inactive)	> 100 µM (inactive)	> 100 µM (inactive)	> 100 µM (inactive)	> 100 µM (inactive)	> 100 µM (inactive)		> 100 µM (inactive)	
C=C1C2C[C@@H]3O[C@H]4C[C@H]5O[C@@]6(C[C@@H]7O[C@]8(C[C@H](C)[C@@H]9O[C@@H]%10CC(C=O)O[C@@H]%10C[C@@H]9O8)C[C@H](C)[C@@H]7O6)C[C@H]5O[C@H]4[C@H](C)[C@H]3OC(=O)C[C@H]3CC[C@@H]4OC5[C@H]6O[C@]7(CC[C@H]8CC(=C)[C@H](CC[C@@H](C[C@H]1C)O2)O8)CC6O[C@@H]5[C@@H](O7)[C@H]4O3 (stereo partly drawn)			< 0.0001 µM (active)	< 0.0001 µM (active)		< 0.0001 µM (active)	0.000179 µM (active)	< 0.0001 µM (active)	< 0.0001 µM (active)	< 0.01 µM (active)	< 0.0001 µM (active)	< 0.0001 µM (active)		< 0.0001 µM (active)	< 0.0001 µM (active)	< 0.0001 µM (active)	< 0.0001 µM (active)	< 0.0001 µM (active)	< 0.0001 µM (active)	
CC(C)(C)C1CCP(=O)(c2ccccc2)CC1 (stereo not drawn)	> 100 µM (inactive)	> 100 µM (inactive)	> 100 µM (inactive)	> 100 µM (inactive)	> 100 µM (inactive)	> 100 µM (inactive)	> 100 µM (inactive)	> 100 µM (inactive)	> 100 µM (inactive)	> 100 µM (inactive)	> 100 µM (inactive)	> 100 µM (inactive)	> 100 µM (inactive)	> 100 µM (inactive)	> 100 µM (inactive)	> 100 µM (inactive)	> 100 µM (inactive)		> 100 µM (inactive)	
